Experimental findings from patent publication US20180334447A1, “2,3,4,5-TETRAHYDROPYRIDIN-6-AMINE DERIVATIVES” (JANSSEN PHARMACEUTICA NV, priority 2015, published 2018) are described below.

Assay [1] concerns the target T1, recombinant BACE2 protein (Homo sapiens, UniProt Q9Y5Z0).
T1 construct: recombinant BACE2 protein in a final concentration of 0.4 μg/ml
T1 sequence (Q9Y5Z0 63-518): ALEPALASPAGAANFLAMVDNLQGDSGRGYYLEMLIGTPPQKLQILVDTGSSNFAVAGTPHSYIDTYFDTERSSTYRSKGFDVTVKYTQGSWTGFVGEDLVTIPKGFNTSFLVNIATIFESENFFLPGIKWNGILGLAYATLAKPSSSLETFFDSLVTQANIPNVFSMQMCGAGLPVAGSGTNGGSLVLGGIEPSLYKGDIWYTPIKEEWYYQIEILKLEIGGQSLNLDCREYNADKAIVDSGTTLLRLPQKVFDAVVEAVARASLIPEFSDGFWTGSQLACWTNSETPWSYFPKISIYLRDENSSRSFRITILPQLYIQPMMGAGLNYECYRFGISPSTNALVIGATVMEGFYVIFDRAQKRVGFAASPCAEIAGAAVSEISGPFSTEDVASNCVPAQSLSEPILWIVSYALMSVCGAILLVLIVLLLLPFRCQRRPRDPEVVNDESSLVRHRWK
The assay can be described thus: BACE2 biochemical FRET based assay. The settings on record: BACE2, 450 minutes at room temperature, pH 5.0; read-out: Biochemical FRET based assay pIC50 (converted). From the text:
(§1) This assay is a Fluorescence Resonance Energy Transfer Assay (FRET) based assay. The substrate for this assay contains the ‘Swedish’ Lys-Met/Asn-Leu mutation of the amyloid precursor protein (APP) beta-secretase cleavage site. This substrate also contains two fluorophores: (7-methoxycoumarin-4-yl) acetic acid (Mca) is a fluorescent donor with excitation wavelength at 320 nm and emission at 405 nm and 2,4-Dinitrophenyl (Dnp) is a proprietary quencher acceptor. […] Upon cleavage by the beta-secretase, the fluorophore Mca is separated from the quenching group Dnp, restoring the full fluorescence yield of the donor. The increase in fluorescence is linearly related to the rate of proteolysis.
Briefly in a 384-well format recombinant BACE2 protein in a final concentration of 0.4 μg/ml is incubated for 450 minutes at room temperature with 10 μM substrate in incubation buffer (50 mM Citrate buffer pH 5.0, 0.05% PEG, no DMSO) in the absence or presence of compound. Next the amount of proteolysis is directly measured by fluorescence measurement at T=0 and T=450 (excitation at 320 nm and emission at 405 nm). Results are expressed in RFU (Relative Fluorescence Units), as difference between T450 and T0.
(§2) A best-fit curve is fitted by a minimum sum of squares method to the plot of % Controlmin versus compound concentration. From this an IC50 value (inhibitory concentration causing 50% inhibition of activity) can be obtained.

Assay [2] deals with T2, recombinant BACE1 protein (Homo sapiens, UniProt P56817).
T2 construct: recombinant BACE1 protein in a final concentration of 1 μg/ml
T2 sequence (P56817 46-501): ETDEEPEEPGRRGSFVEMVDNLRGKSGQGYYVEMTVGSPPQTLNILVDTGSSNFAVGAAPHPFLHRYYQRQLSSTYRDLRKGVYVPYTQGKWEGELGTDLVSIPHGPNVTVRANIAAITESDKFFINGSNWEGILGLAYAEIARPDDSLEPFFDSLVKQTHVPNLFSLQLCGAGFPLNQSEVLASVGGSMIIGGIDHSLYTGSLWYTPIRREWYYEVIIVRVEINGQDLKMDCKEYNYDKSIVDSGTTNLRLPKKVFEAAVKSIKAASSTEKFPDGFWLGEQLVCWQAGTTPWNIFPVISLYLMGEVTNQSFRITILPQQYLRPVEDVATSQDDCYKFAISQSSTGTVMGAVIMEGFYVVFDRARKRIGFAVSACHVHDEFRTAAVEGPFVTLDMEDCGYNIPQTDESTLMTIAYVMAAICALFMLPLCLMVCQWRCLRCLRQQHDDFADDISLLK
The assay can be described thus: BACE1 biochemical FRET based assay - Method 1. The settings on record: BACE1, 120 minutes at room temperature, pH 5.0; read-out: Biochemical FRET based assay - Method 1 pIC50 (converted).
Text: as §1, with “this assay is an APP derived 13 amino acids peptide that contains the” for “this assay contains the”, “cleavage by BACE1, the fluorophore” for “cleavage by the beta-secretase, the fluorophore”
Briefly in a 384-well format recombinant BACE1 protein in a final concentration of 1 μg/ml is incubated for 120 minutes at room temperature with 10 μm substrate in incubation buffer (40 mM Citrate buffer pH 5.0, 0.04% PEG, 4% DMSO) in the absence or presence of compound. Next the amount of proteolysis is directly measured by fluorescence measurement at T=0 and T=120 (excitation at 320 nm and emission at 405 nm). Results are expressed in RFU (Relative Fluorescence Units), as difference between T120 and T0.
as §2

Assay [3] relates to Abeta 1-37, Abeta 1-38, Abeta 1-40 and Abeta 1-42 in CSF. Nature of the assay: Pharmacology in the Beagle dog: beta-amyloid profile in cerebrospinal fluid (CSF) after a single dose. In kind it is in vivo. Here is the method:
Test compounds were tested to evaluate the effect on the beta-amyloid profile in cerebrospinal fluid (CSF) of dogs after a single dose, in combination with pharmacokinetic (PK) follow up and limited safety evaluation.
For each of compound 20, 21, 22 or 41, four beagle dogs (2 males, 2 females) were dosed with vehicle (1 ml/kg of an aqueous solution of 20% cyclodextrin) and 12 beagle dogs (2 males and 2 females per dosage group) were dosed with test compounds as follows:
In the case of compounds 39, 33 and 31, two beagle dogs (1 male, 1 female) were dosed with vehicle (1 ml/kg of an aqueous solution of 20% cyclodextrin) and 4 beagle dogs (2 males and 2 females) were dosed with test compound […] (0.31 mg/kg in 0.31 mg/ml of an aqueous 20% cyclodextrin solution) on an empty stomach.
Eight hours after dosing the animals got access to their regular meal for 30 minutes. Blood was taken for PK follow up (0.5, 1, 2, 4, 8, 25 and 49 hours) and serum samples for biochemistry were taken before and at 8 and 25 h after dosing. The CSF samples were used for measurement of Abeta 1-37, Abeta 1-38, Abeta 1-40 and Abeta 1-42.

The subject of assay [4] is Abeta 1-42 produced and secreted into the medium of human neuroblastoma SKNBE2 cells. The assay can be described thus: Cellular αLisa assay in SKNBE2 cells, Abeta 42. The format is cell-based. The settings on record: SKNBE2 cells expressing hAPP695, incubated for 18 hours; for IC50: Homo sapiens, SKNBE2, 18 h, read-out: Cellular αLisa assay in SKNBE2 cells Abeta 42 pIC50 (converted). Here is the method:
In two αLisa assays the levels of Abeta 1-42 produced and secreted into the medium of human neuroblastoma SKNBE2 cells are quantified. The assay is based on the human neuroblastoma SKNBE2 expressing the wild type Amyloid Precursor Protein (hAPP695). The compounds are diluted and added to these cells, incubated for 18 hours and then measurements of Abeta 1-42 are taken. Abeta 1-42 are measured by sandwich αLisa. αLisa is a sandwich assay using biotinylated antibody AbN/25 attached to streptavidin coated beads and antibody cAb42/26 conjugated acceptor beads for the detection of Abeta 1-42 respectively. In the presence of Abeta 1-42, the beads come into close proximity. The excitation of the donor beads provokes the release of singlet oxygen molecules that trigger a cascade of energy transfer in the acceptor beads, resulting in light emission. Light emission is measured after 1 hour incubation (excitation at […] and emission at 615 nm).
as §2

The test system of assay [5] is Abetatotal in human neuroblastoma SKNBE2 cells. Nature of the assay: Cellular αLisa assay in SKNBE2 cells, Abetatotal. The format is cell-based. The conditions noted are these: SKNBE2 cells expressing hAPP695, incubated for 18 hours; for IC50: Homo sapiens, SKNBE2, 18 h, read-out: Cellular αLisa assay in SKNBE2 cells Abetatotal pIC50 (converted).
Setting [6] is: Canis lupus familiaris, single dose 0.08 mg/kg, 8 h post dosing, read-out: % Decrease in Abeta 1-42 at 8 h post dosing compared to own baseline.
Where [7] appears, read: Canis lupus familiaris, single dose 0.31 mg/kg, 8 h post dosing, read-out: % Decrease in Abeta 1-42 at 8 h post dosing compared to own baseline.
Setting [8] is: single dose 0.31 mg/kg, 25 h post dosing (b).

Regarding `CC1(S(C)(=O)=O)CCC(CF)(c2cc(NC(=O)c3ccc(C#N)cn3)ccc2F)N=C1N` (stereo not drawn) [Compound 22], the IC50 in assay [1] is 5.25 nM; in assay [2], 1.12 nM; in assay [4], 1.15 nM. In addition, in assay [3] (setting [6]), the inhibition in vivo at 0.08 mg/kg was found to be 50%. Besides, the inhibition in vivo at 0.31 mg/kg in assay [3] (setting [7]) was found to be 78%. In assay [3] (single dose 0.08 mg/kg, 24 h post dosing (a)), the “% Decrease in Abeta 1-42 at 24 h^(a) or 25 h^(b) post dosing compared to own baseline” value was 54^(a) %. Also, in assay [3] (single dose 0.31 mg/kg), the “% Decrease in Abeta 1-42 at 49 h post dosing compared to own baseline” value was 71%.

Take `C[C@@]1(S(C)(=O)=O)CC[C@@](CF)(c2cc(NC(=O)c3cnc(OCF)cn3)ccc2F)N=C1N` [Compound 41]: the IC50 in assay [1] is 16.6 nM; in assay [2], 2.19 nM; in assay [4] it was 1.62 nM. Moreover, the inhibition in vivo at 0.16 mg/kg in assay [3] (Canis lupus familiaris, single dose 0.16 mg/kg, 8 h post dosing, read-out: % Decrease in Abeta 1-42 at 8 h post dosing compared to own baseline) was found to be 71%. Also, in assay [3] (setting [7]), the inhibition in vivo at 0.31 mg/kg turned out to be 78%. In addition, the inhibition in vivo at 1.25 mg/kg in assay [3] (Canis lupus familiaris, single dose 1.25 mg/kg, 8 h post dosing, read-out: % Decrease in Abeta 1-42 at 8 h post dosing compared to own baseline) came to 89%. The “% Decrease in Abeta 1-42 at 24 h^(a) or 25 h^(b) post dosing compared to own baseline” value in assay [3] (single dose 0.16 mg/kg, 25 h post dosing (b)) was 26^(b) %; in assay [3] (setting [8]), 49^(b) %. Moreover, in assay [3] (single dose 1.25 mg/kg), the “% Decrease in Abeta 1-42 at 49 h post dosing compared to own baseline” value came to 41%.

Turning to `CC(C)S(=O)(=O)C1(C)CCC(CF)(c2cc(NC(=O)c3ccc(F)cn3)ccc2F)N=C1N` (single isomer, unassigned) [Compound 33], the figures for the IC50 in assay [1] and in assay [2] were 3.55 nM and 4.27 nM, respectively. Besides, in assay [5], the “Cellular αLisa assay in SKNBE2 cells Abetatotal pIC50” value is given as 8.37. In assay [3] (setting [7]), the inhibition in vivo at 0.31 mg/kg was found to be 34%. In assay [4], the “Cellular αLisa assay in SKNBE2 cells Abeta 42 pIC50” value is reported as 8.32.

Consider `C[C@@]1(c2cc(NC(=O)c3ccc(F)cn3)ccc2F)CC[C@@](CF)(S(C)(=O)=O)C(N)=N1` [Compound 26], for which the IC50 is 11 nM in assay [1], 14.8 nM in assay [2], 4.07 nM in assay [5] and 5.25 nM in assay [4].

With `CC(C)S(=O)(=O)C1(C)CCC(CF)(c2cc(NC(=O)c3ccc(F)cn3)ccc2F)N=C1N` (single isomer, unassigned) [Compound 34], the IC50 in assay [1] is 4270 nM; in assay [2] it was 3630 nM. The “Cellular αLisa assay in SKNBE2 cells Abetatotal pIC50” value in assay [5] was found to be 5.72. Further, in assay [4], the “Cellular αLisa assay in SKNBE2 cells Abeta 42 pIC50” value was found to be 5.56.

Regarding `CC[C@]1(S(C)(=O)=O)CC[C@@](CF)(c2cc(NC(=O)c3ccc(F)cn3)ccc2F)N=C1N` [Compound 29a], the IC50 in assay [1] was 776 nM; in assay [2] it was 871 nM; in assay [5] it was 182 nM; in assay [4] it was 851 nM.

With `CC1(S(C)(=O)=O)CCC(CF)(c2cc(NC(=O)c3cnc(OCC(F)F)cn3)ccc2F)N=C1N` (stereo not drawn) [Compound 35], the IC50 in assay [1] was 44.7 nM; in assay [2], 3.72 nM; in assay [5], 2.82 nM; in assay [4], 3.09 nM.

As for `Cc1cc(C#N)cnc1C(=O)Nc1ccc(F)c([C@]2(CF)CC[C@@](C)(S(C)(=O)=O)C(N)=N2)c1` [Compound 21], the IC50 in assay [1] is 5.01 nM; in assay [2], 1.38 nM; in assay [4] it was 0.813 nM. For the same compound, the inhibition in vivo at 0.08 mg/kg in assay [3] (setting [6]) was 49%. Moreover, in assay [3] (setting [7]), the inhibition in vivo at 0.31 mg/kg turned out to be 78%. The inhibition in vivo at 0.63 mg/kg in assay [3] (Canis lupus familiaris, single dose 0.63 mg/kg, 8 h post dosing, read-out: % Decrease in Abeta 1-42 at 8 h post dosing compared to own baseline) stood at 70%. For the same compound, the “% Decrease in Abeta 1-42 at 24 h^(a) or 25 h^(b) post dosing compared to own baseline” value in assay [3] (setting [8]) is 69^(b) %.

As for `COc1cnc(C(=O)Nc2ccc(F)c([C@@]3(C)N=C(N)[C@](C)(C#N)C[C@]3(C)F)c2)cn1` [Compound 27], the IC50 in assay [1] is 389 nM; in assay [2] it was 41.7 nM; in assay [5], 16.2 nM; in assay [4] it was 17.4 nM.

As for `CC1(S(C)(=O)=O)CCC(CF)(c2cc(NC(=O)c3ncc(OC(F)F)cn3)ccc2F)N=C1N` (stereo not drawn) [Compound 36], the IC50 is 28.2 nM in assay [1], 4.27 nM in assay [2], 4.37 nM in assay [5] and 4.37 nM in assay [4].

Regarding `COc1cnc(C(=O)Nc2ccc(F)c([C@@]3(C)N=C(N)[C@@](C)(C#N)C[C@]3(C)F)c2)cn1` [Compound 28], the IC50 in assay [1] was above 10000 nM; in assay [2] it was 1150 nM; in assay [5] it was 501 nM; in assay [4], 550 nM.

For `CCC1(S(=O)(=O)CC)CCC(CF)(c2cc(NC(=O)c3ccc(F)cn3)ccc2F)N=C1N` (stereo not drawn) [Compound 30], the IC50 in assay [1] is 24.5 nM; in assay [2] it was 15.8 nM; in assay [5], 13.5 nM; in assay [4] it was 15.8 nM.

Turning to `C[C@]1(c2cc(NC(=O)c3cnc(OCF)cn3)ccc2F)N=C(N)[C@](C)(S(C)(=O)=O)CC1(F)F` [Compound 24], the IC50 in assay [1] was 977 nM; in assay [2] it was 91.2 nM; in assay [4] it was 468 nM.

Regarding `CCOc1cnc(C(=O)Nc2ccc(F)c(C3(CF)CCC(C)(S(C)(=O)=O)C(N)=N3)c2)cn1` (stereo not drawn) [Compound 37], the IC50 is 32.4 nM in assay [1], 3.72 nM in assay [2] and 3.47 nM in assay [4].
